Measured values as given in patent US4906753A, “Preparation of 2,6-disubstituted-5-cyano-4-pyrimidinyloxyacetic acid aldose reductase inhibitors” (American Home Products Corporation, priority 1988, dated 1990).
Like-named read-outs stand apart in the source and are kept apart here.

Assays:
aldose reductase [1] = target: T1, aldose reductase (Bos taurus, UniProt P16116); test: in vitro aldose reductase inhibition (modified Hayman and Kinoshita procedure); type: biochemical, bovine (lens); conditions: for inhibition at 10 µM: read-out: % Inhibition IN VITRO 10^-5 M; for inhibition at 1 µM: 10^-6 M; for inhibition at 0.1 µM: 10^-7 M
T1 construct: preparation of the enzyme from bovine lens; from tissue; host or cells: bovine lens
From the text: In the present case the procedure of Hayman and Kinoshita was modified in that the final chromatography step was omitted in the preparation of the enzyme from bovine lens.

galactosemic rats = test: lowering of dulcitol (galactitol) accumulation in tissues of galactosemic rats; type: in vivo, rat (male Sprague-Dawley); conditions: for % Lowering dulcitol accumulation IN VIVO, D: Table 1, diaphragm
Procedure: Such experiments are exemplified hereinbelow after the listing of the following general comments pertaining to these experiments:
Male Sprague-Dawley rats, weighing approximately 90 grams were separated into groups of equal average body weight, with six animals per group. The animals were housed in cages of six animals each and maintained on 12 hour night/12 hour day cycles. Except as otherwise noted, the animals were given food and water ad libitum.
On day 1, the galactosemic control group and all drug-treated groups were given access to 20% galactose chow (Bio-Serv, Frenchtown, NJ). Animals in the control group were given access to 20% glucose chow (Bio-Serv). Test compounds were administered either in the diet or by gavage as a suspension in 2% Tween 80 in saline. In experiments, in which gavage dosing was used, the animals were administered the test compound daily at approximately the same hour each day. Food intake and body weight were determined twice during the course of the experiment. In cases in which the compound was administered in the diet, the average dose was calculated on the basis of the actual average food intake during the experiment.
On the morning of day 5, all animals were fasted; beginning two hours later the animals were decapitated and the lenses, sciatic nerves, and a 50-100 mg portion of the diaphragm were removed, weighed, and frozen in porcelain plates on dry ice.
Only two minor reagent changes were made: (a) the rinsing mixture was an aqueous 5% (w/v) trichloroacetic acid solution and (b) the stock solution was prepared by dissolving 25 mg of dulcitol in 100 mL of an aqueous trichloroacetic acid solution. [N.B.: For each experiment the average value found in the tissue from rats fed the glucose diet was subtracted from the individual values found in the corresponding tissue in galactose-fed rats to obtain the amount of polyol accumulated.]
The figures under L, N and D represent the percentage decrease of galactitol accumulation in the tissues of the lens, sciatic nerve, and diaphragm, respectively, for treated rats as compared to untreated rats.

aldose reductase [2] = conditions: reported in U.S. Pat. No. 4,568,693; cited from earlier work

Compound | inhibition at 10 µM (aldose reductase [1]; Table 1, 10^-5 M) [%] | inhibition at 1 µM (aldose reductase [1]; Table 1) [%] | inhibition at 0.1 µM (aldose reductase [1]; Table 1) [%] | other results
N#Cc1c(Cc2cccc3ccccc23)nc(-c2cccc3c(Br)cccc23)nc1OCC(=O)O [Example 1 (Table 2), [[2-(5-Bromo-1-naphthalenyl)-5-cyano-6-[(1-naphthalenyl)methyl]-4-pyrimidinyl]oxy]acetic Acid] | – | – | – | inhibition at 10 µM (aldose reductase [1]; Table 2, 10^-5 M): 90%; inhibition at 1 µM (aldose reductase [1]; Table 2): 85%; inhibition at 0.1 µM (aldose reductase [1]; Table 2): 46%
CSc1nc(C2CCCCC2)nc(OCC(=O)O)c1C#N [Example 15 (Table 1)] | 90 | 90 | 74 | –
CC(C)(C)c1nc(OCC(=O)O)c(C#N)c(SCc2ccc(Br)cc2F)n1 [Example 2 (Table 1)] | – | 93 | 93 | inhibition at 10 µM (aldose reductase [1]): 98%; % Lowering dulcitol accumulation IN VIVO, D (galactosemic rats; 99 mg/kg): 47%
N#Cc1c(OCC(=O)O)nc(-c2ccccc2)nc1-c1ccccc1 [Example 4 (Table 2)] | – | – | – | inhibition at 0.1 µM (aldose reductase [1]; Table 2): 85%; % Lowering dulcitol accumulation IN VIVO, L (galactosemic rats; Table 2, lens, 100 mg/kg): 17%
CC(C)c1nc(-c2cccc3c(Br)cccc23)nc(OCC(=O)O)c1C#N [Example 6 (Table 2)] | – | – | – | inhibition at 10 µM (aldose reductase [1]; Table 2, 10^-5 M): 94%; inhibition at 1 µM (aldose reductase [1]; Table 2): 90%; inhibition at 0.1 µM (aldose reductase [1]; Table 2): 53%
CC(C)Sc1nc(C(C)(C)C)nc(OCC(=O)O)c1C#N [Example 12 (Table 1)] | 92 | 91 | 89 | % Lowering dulcitol accumulation IN VIVO, D (galactosemic rats; 82 mg/kg): 19%
CC(C)(C)c1nc(OCC(=O)O)c(C#N)c(SCC2CCCCC2)n1 [Example 1 (Table 1), [[5-Cyano-6-[(cyclohexylmethyl)thio]-2-(1,1-dimethylethyl)-4-pyrimidinyl]oxy]acetic Acid] | 97 | 96 | 88 | –
CSc1nc(CC(C)(C)C)nc(OCC(=O)O)c1C#N [Example 4 (Table 1)] | 95 | 96 | 85 | % Lowering dulcitol accumulation IN VIVO, D (galactosemic rats; 98 mg/kg): 22%
N#Cc1c(OCC(=O)O)nc(-c2cccc3ccccc23)nc1-c1ccccc1 [Example 5 (Table 2)] | – | – | – | inhibition at 10 µM (aldose reductase [1]; Table 2, 10^-5 M): 79%; inhibition at 1 µM (aldose reductase [1]; Table 2): 76%; inhibition at 0.1 µM (aldose reductase [1]; Table 2): 53%
CSc1nc(-c2cccs2)nc(OCC(=O)O)c1C#N [Example 17 (Table 1)] | – | 97 | 92 | inhibition at 10 µM (aldose reductase [1]): 98%
Cc1nc(-c2ccccc2)nc(OCC(=O)O)c1C#N | – | – | – | inhibition at 10 µM (aldose reductase [1]; Table 2, 10^-5 M): 92%; inhibition at 1 µM (aldose reductase [1]; Table 2): 88%; inhibition at 0.1 µM (aldose reductase [1]; Table 2): 79%
CSc1nc(C(C)C)nc(OCC(=O)O)c1C#N [Example 5 (Table 1)] | – | 97 | 88 | inhibition at 10 µM (aldose reductase [1]): 98%
CC(C)(C)c1nc(OCC(=O)O)c(C#N)c(SCc2ccc(Br)cc2)n1 [Example 10 (Table 1)] | 95 | 95 | 95 | % Lowering dulcitol accumulation IN VIVO, D (galactosemic rats; 135 mg/kg): 58%
COc1ccc2c(C(=S)N(C)CC(=O)O)cccc2c1C(F)(F)F [tolrestat, N-[[6-methoxy-5-(trifluoromethyl)-1-naphthalenyl]-thioxomethyl]-N-methylglycine, reference compound] | – | – | – | inhibitor of aldose reductase (aldose reductase [2]): effective inhibitor of aldose reductase
Cc1nc(-c2cccc3ccccc23)nc(OCC(=O)O)c1C#N [Example 3 (Table 2)] | – | – | – | inhibition at 10 µM (aldose reductase [1]; Table 2, 10^-5 M): 93%; inhibition at 1 µM (aldose reductase [1]; Table 2): 85%; inhibition at 0.1 µM (aldose reductase [1]; Table 2): 46%
CCCCCCSc1nc(C(C)(C)C)nc(OCC(=O)O)c1C#N [Example 11 (Table 1)] | – | – | – | % Lowering dulcitol accumulation IN VIVO, D (galactosemic rats; 112 mg/kg): 60%

Continued, in another order:

inhibition at 10 µM (aldose reductase [1]; Table 1, 10^-5 M) [%] | inhibition at 1 µM (aldose reductase [1]; Table 1) [%] | inhibition at 0.1 µM (aldose reductase [1]; Table 1) [%] | Compound | other results
95 | 93 | 82 | CSc1nc(-c2ccc(Br)cc2)nc(OCC(=O)O)c1C#N [Example 9 (Table 1)] | % Lowering dulcitol accumulation IN VIVO, D (galactosemic rats; 114 mg/kg): 27%
92 | 87 | 75 | CSc1nc(-c2ccccc2)nc(OCC(=O)O)c1C#N [Example 14 (Table 1)] | % Lowering dulcitol accumulation IN VIVO, D (galactosemic rats; 96 mg/kg): 55%
90 | 84 | 55 | CSc1nc(C)nc(OCC(=O)O)c1C#N [Example 13 (Table 1)] | –
86 | 85 | 82 | CC(C)(C)c1nc(OCC(=O)O)c(C#N)c(SCc2ccccc2)n1 [Example 16 (Table 1)] | % Lowering dulcitol accumulation IN VIVO, D (galactosemic rats; 97 mg/kg): 67%
91 | 90 | 78 | CSc1nc(Cc2ccccc2)nc(OCC(=O)O)c1C#N | –
95 | 91 | 73 | N#Cc1c(OCC(=O)O)nc(C2CCCCC2)nc1SCc1ccccc1 [Example 8 (Table 1)] | –
92 | 89 | 74 | CCCc1nc(OCC(=O)O)c(C#N)c(SC)n1 [Example 7 (Table 1)] | –
89 | 88 | 82 | CSc1nc(C(C)(C)C)nc(OCC(=O)O)c1C#N [Example 3 (Table 1)] | % Lowering dulcitol accumulation IN VIVO, D (galactosemic rats; 83 mg/kg): 32%
